Source: patent US20130213851A1, “OMEGA 3 FATTY ACID FORMULATIONS” (CENESTRA LLC., priority 2005, published 2013)

System: Attention Deficit Hyperactivity Disorder (ADHD)-combined type, and Tic Disorder
Test: Case report: cognition, attention and tics after OMAX3 augmentation
Type: in vivo, human
Conditions: for treatment response of tics: past use
Procedure: […] […] Past medication trials included: Strattera (atomoextine), Adderall, Adderall XR, methylphenidate, Tenex (guanfacine), and Concerta. His most recent medication treatment was with Concerta 54 mg per day.
R's Tic Disorder was comprised of both vocal and motor tics in the form of random verbalizations or screeching sounds, as well as either a facial and neck twitch.
The patient was treated with OMAX3, 2 capsules per day (1125 mg EPA, 275 mg DHA, 1500 mg Total Omega-3 fatty acids) for the purpose of enhancing their attention and cognitive function.

Compound | inattention symptoms (patient's report at baseline, Concerta 54 mg per day, before OMAX3) | treatment response of tics (patient history) | tolerability (past use for tics, patient history)
COC(=O)C(c1ccccc1)C1CCCCN1 (stereo not shown) [Concerta] | sufficiently improved |  | 
Cc1nc2n(c(=O)c1CCN1CCC(c3noc4cc(F)ccc34)CC1)CCCC2 [Risperdal, risperidone] |  | only a partial treatment response | 
N=C(N)NC(=O)Cc1c(Cl)cccc1Cl [Tenex, guanfacine] |  | only a partial treatment response | poor tolerability
